Values of other authors in patent publication US9907807B2, “Topical pharmaceutical compositions” (Almirall, S.A., priority 2010, dated 2018).

- solubility in ethyl alcohol (ethyl alcohol): moderately soluble
- solubility in octanol (octanol): slightly soluble
- solubility in water (water): insoluble
SMILES: C[C@@H]1C[C@H]2[C@@H]3CCC4=CC(=O)C=C[C@]4(C)[C@@]3(Cl)[C@@H](O)C[C@]2(C)[C@@]1(OC(=O)c1ccco1)C(=O)CCl [Mometasone furoate, 9α,21-dichloro-11β,17-dihydroxy-16α-methylpregna-1,4-diene-3,20-dione 17-(2-furoate)]
